# Literature values as cited in patent US9248112B2, “Hemodialysis and peritoneal dialysis solutions comprising one or more creatine compounds” (CREARENE LTD., priority 2009, dated 2016).
# Read-outs that look alike come from different tables or passages of the source.
# Tests used:
# [1] = not given; remark: listed apart in the source
# [2] = not given; remark: listed apart in the source
# [3] = tested on: homocysteine; conditions: animal model
# [4] = molecular target: T1, creatine transporter protein (CrT) (Homo sapiens, UniProt P48029); conditions: CrT in the plasma membrane
# T1 sequence (P48029 1-635): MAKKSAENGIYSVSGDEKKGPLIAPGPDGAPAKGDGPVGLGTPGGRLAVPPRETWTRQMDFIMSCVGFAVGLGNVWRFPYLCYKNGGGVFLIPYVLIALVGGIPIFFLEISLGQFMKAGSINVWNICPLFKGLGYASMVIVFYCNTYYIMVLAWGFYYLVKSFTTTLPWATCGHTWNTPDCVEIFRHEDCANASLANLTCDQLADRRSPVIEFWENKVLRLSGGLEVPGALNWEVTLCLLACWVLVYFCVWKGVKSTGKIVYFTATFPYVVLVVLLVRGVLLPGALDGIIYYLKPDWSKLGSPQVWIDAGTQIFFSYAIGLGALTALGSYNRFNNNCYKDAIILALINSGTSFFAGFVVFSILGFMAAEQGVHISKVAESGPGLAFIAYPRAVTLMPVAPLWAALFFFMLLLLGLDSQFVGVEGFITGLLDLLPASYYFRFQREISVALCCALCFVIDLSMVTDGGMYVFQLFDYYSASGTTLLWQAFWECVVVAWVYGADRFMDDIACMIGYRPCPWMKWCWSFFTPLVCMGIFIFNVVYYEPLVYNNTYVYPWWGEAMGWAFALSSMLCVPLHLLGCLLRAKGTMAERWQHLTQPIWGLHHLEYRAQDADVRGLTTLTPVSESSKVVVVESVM
# [5] = adults, clinical studies
# [6] = tested on: homocysteine
# [7] = peritoneal dialysis solution, 37° C.
SMILES,"decrease in muscle cramps (12 g orally 5 minutes before hemodialysis, four week treatment) [%]","serum creatinin after treatment (after four week treatment period, 12 g orally before hemodialysis) [mg/dL]",serum creatinin before treatment (start of four week treatment period) [mg/dL],"stability in acidic aqueous solutions ([1]; acidic aqueous solutions, temperatures over 60° C.)","storage stability in solution ([1]; neutral pH, cooled)",serum creatine concentration ([2]; after a single oral dose of 5-20 g of creatine),time to reach maximal levels in the blood stream ([2]; ingested (oral) creatine),serum levels of homocysteine [3],Km [4] [µM],safe daily intake [5],"homocystein levels ([6]; 2 g/day, additionally vitamin B supplemented subjects)","homocystein levels ([6]; humans, approximately 5 g Cr/day)",concentration near the saturation limit of creatine [7]
CN(CC(=O)O)C(=N)N.O [creatine monohydrate],60,12.4,10.7,some instability,can be stored for thirty days without losses,–,–,–,–,–,–,–,–
CN(CC(=O)O)C(=N)N [creatine],–,–,–,–,–,1-2 mM/l,two to four,reduce serum levels,25 to 30,up to 20 g daily,no such effects were seen,reduction of homocystein levels,24-25 g per liter
